# Results taken from article PMC11356571, “The Comparative Metabolism of a Novel Hepatocellular Carcinoma Therapeutic Agent, 2,3-Diamino-N-(4-(benzo[d]thiazol-2-yl)phenyl)propanamide, in Human and Animal Hepatocytes” (Metabolites, 2024).
# What was measured:
# Format in all cases: in vitro ADME
# Details in all cases: cryopreserved hepatocytes
# [1] = Metabolic stability in mouse hepatocytes
# Protocol: (§1) Cryopreserved hepatocytes were carefully thawed in a 37 °C water bath for approximately 1 min, and transferred to a tube containing pre-warmed thawing medium. The supernatants were removed and the pellets were resuspended in KHB at a final cell density of 1 × 10^6 cells/mL, based on hemocytometer counting using trypan blue exclusion. A ETN101 solution was prepared by dissolving ETN101 in water at 4 mM and diluted by KHB at the concentration of 4 μM of ETN101. Sixty microliters each of hepatocyte suspensions and 4 μM of ETN101 were added in a 96-well plate and incubated for 0, 5, 15, 30, and 45 min at 37 °C in a CO2 incubator. All incubations were conducted in triplicates. Reactions were terminated by the addition of 120 μL of ice-cold acetonitrile and followed by vortex mixing. After centrifugation at 13,000 rpm for 8 min at 4 °C, 5 μL of internal standard (IS, camptothecin in acetonitrile at 780 ng/mL) was added to 60 μL of supernatant. A 2 μL aliquot was injected into the LC-MS/MS system. The reliability of the analysis was confirmed by incorporating three different levels of quality control samples at the beginning and end of each analytical batch. The disappearance rate (k) of ETN101 was calculated by determined peak area ratio of ETN101 to IS over incubation period. Subsequently, half-life (t1/2), intrinsic clearance (Clint), and intrinsic hepatic clearance (Clint,hep) of ETN101 in human and animal hepatocytes were calculated using the following equation [34]: t1/2(min)=ln2/−k(elimination slope) ClintμL/min/10^6 cells=ln2/t1/2×μL incubation/hepatocytes (10^6 cells) Clint,hepmL/min/kg=Clint/1000×A×10^6 cells/g liver×B g liver/kg body weight […]
# (§2) For the metabolic stability assay, an LC-MS/MS system was employed, consisting of an Agilent 1260 series HPLC system (Agilent Technologies Inc., Santa Clara, CA, USA) coupled to an API 4000 mass spectrometer (AB SCIEX, Concord, Vaughan, ON, Canada) equipped with a turbo electrospray interface. […] ETN101 and IS were detected using multiple reaction monitoring (MRM) mode under positive electrospray ionization (ESI). […]
# [2] = Metabolic stability in rat hepatocytes
# Protocol: as §1, §2
# [3] = Metabolic stability in dog hepatocytes
# Protocol: as §1, §2
# [4] = Metabolic stability in monkey hepatocytes
# Protocol: as §1, §2
compound,measurement,setting,value
"NCC(N)C(=O)Nc1ccc(-c2nc3ccccc3s2)cc1 (stereo not drawn) [ETN101, 2,3-diamino-N-(4-(benzo[d]thiazol-2-yl)phenyl)propanamide]",half-life at 2 µM,[1]; 45 min incubation at 37 °C,2.01 h
same,hepatocyte CLint at 2 µM,[1]; 45 min incubation at 37 °C,11.5 µL/min/1e6 cells
same,CLint scaled at 2 µM,[1]; scaled from Clint,136 mL/min/kg
same,half-life at 2 µM,[2]; 45 min incubation at 37 °C,1.15 h
same,hepatocyte CLint at 2 µM,[2]; 45 min incubation at 37 °C,20.1 µL/min/1e6 cells
same,CLint scaled at 2 µM,[2]; scaled from Clint,94.1 mL/min/kg
same,half-life at 2 µM,[3]; 45 min incubation at 37 °C,1.88 h
same,hepatocyte CLint at 2 µM,[3]; 45 min incubation at 37 °C,12.3 µL/min/1e6 cells
same,CLint scaled at 2 µM,[3]; scaled from Clint,84.6 mL/min/kg
same,half-life at 2 µM,[4]; 45 min incubation at 37 °C,1.22 h
same,hepatocyte CLint at 2 µM,[4]; 45 min incubation at 37 °C,19 µL/min/1e6 cells
same,CLint scaled at 2 µM,[4]; scaled from Clint,45.7 mL/min/kg
